From patent US20160200769A1, “Compound, Transitmycin, Effective Against Bacterial and Viral Pathogens” (INDIAN COUNCIL OF MEDICAL RESEARCH, priority 2013, published 2016)
*1 amine or outer side, *2 acyl side, *3 side chain or, on linkers, in order; H or OH if unused. Where a SMILES comes first, the peptide text is derived from it. Bridges are numbered along the chain shown (N, C = ends). Roman numbers before positions name the chains, in order. [ ]: non-standard residue; d: D form. Actinocin(1to9) = Cc1c2oc3c(C)ccc(C(=O)[*:2])c3nc-2c(C(=O)[*:1])c(N)c1=O; Pro(4-oxo) = O=C1CN[C@H](C(=O)O)C1; NMeV = CN[C@H](C(=O)O)C(C)C; Sar = CNCC(=O)O

Tested on: M. tuberculosis SHRE resistant
Experiment: microbe, parasite or virus in culture
Format: cell-based
Conditions: Mycobacterium tuberculosis

With `Cc1c2oc3c(C)ccc(C(=O)N[C@@H]4C(=O)N[C@@H](C(C)C)C(=O)N5CCC[C@H]5C(=O)N(C)CC(=O)N(C)[C@@H](C(C)C)C(=O)O[C@@H]4C)c3nc-2c(C(=O)N[C@@H]2C(=O)N[C@@H](C(C)C)C(=O)N3CC(=O)C[C@H]3C(=O)N(C)CC(=O)N(C)[C@@H](C(C)C)C(=O)O[C@@H]2C)c(N)c1=O` [compound of formula (I), Transitmycin] (I: TV[Pro(4-oxo)][Sar][NMeV] / II: TVP[Sar][NMeV]; ester I:1-I:C, II:1-II:C; linker I:N-II:N via Actinocin(1to9)) the MIC was 6.25 µg/mL.
